Results on eleven compounds are retold here after patent US20260022142A1, “MACROCYCLIC IMMUNOMODULATORS” (Bristol-Myers Squibb Company, priority 2022, published 2026).

Bridge positions count the residues as written; N and C are the ends. Square brackets hold non-standard residues; d marks the D form. Peptide text beside a SMILES is read from it. * marks the point of attachment. Phe(4-COOH) = N[C@@H](Cc1ccc(C(=O)O)cc1)C(=O)O; Bip = N[C@@H](Cc1ccc(-c2ccccc2)cc1)C(=O)O; NH(CH2)14COOH = O=C(O)CCCCCCCCCCCCCCN*; Phe(3-Me) = Cc1cccc(C[C@H](N)C(=O)O)c1; NH(CH2)12COOH = O=C(O)CCCCCCCCCCCCN*; Val(3-OH) = CC(C)(O)[C@H](N)C(=O)O; Cha = N[C@@H](CC1CCCCC1)C(=O)O; Carboxymethyl = O=C(O)C*; Orn = NCCC[C@H](N)C(=O)O; Aun = NCCCCCCCCCCC(=O)O; Dab = NCC[C@H](N)C(=O)O; Nva = CCC[C@H](N)C(=O)O; Abu = CC[C@H](N)C(=O)O; AEEA = NCCOCCOCC(=O)O

A word on the IC50: it is the concentration at which inhibition is half-maximal.

For the experiment, the target named is T1, PD-1/PD-L1 interaction (PE-labeled human PD-L1-Ig binding to Jurkat cell line over-expressing human PD-1) (Homo sapiens, UniProt Q15116).
T1 construct: expressed in transfected cells; host or cells: Jurkat
T1 sequence (Q15116 25-288): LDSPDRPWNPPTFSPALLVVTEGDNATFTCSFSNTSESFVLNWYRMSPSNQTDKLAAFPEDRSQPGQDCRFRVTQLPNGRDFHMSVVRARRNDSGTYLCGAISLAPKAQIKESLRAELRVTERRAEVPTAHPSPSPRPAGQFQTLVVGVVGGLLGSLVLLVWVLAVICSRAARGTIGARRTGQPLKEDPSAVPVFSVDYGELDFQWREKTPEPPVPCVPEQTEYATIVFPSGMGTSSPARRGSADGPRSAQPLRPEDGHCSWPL
Kind of experiment: Jurkat-PD-1 Cell Binding High-Content Screening Assay (CBA). The experiment is classed as cell-based. The note with it: Jurkat cell line over-expressing human PD-1; PE-labeled PD-L1-Ig 20 nM final; read-out: Jurkat hPD1-PDL1 IC50. In outline:
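Binding of fluorescent PD-L1-Ig (phycoerythrin on Ig tag, 20 nM final, 1 h) measured by high-content imaging of fixed, Hoechst-counterstained Jurkat-hPD-1 cells. Compound added 2 h at 37° C beforehand, in DMEM with 10% fetal calf serum.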
With `CCC[C@@H]1NC(=O)CSC[C@@H](C(=O)N[C@@H](CCN)C(=O)NCCOCCOCC(=O)NCCOCCOCC(=O)NCCCCCCCCCCCCCCC(=O)O)NC(=O)[C@H](CO)NC(=O)[C@H](C(C)(C)O)NC(=O)[C@H](CC2CCCCC2)NC(=O)[C@H](CCN)NC(=O)[C@@H](CC(C)C)NC(=O)[C@H](CCCN)NC(=O)[C@H](Cc2ccc(OCC(=O)O)cc2)NC(=O)[C@H](Cc2ccc(-c3ccccc3)cc2)NC(=O)[C@H](Cc2ccc(OCC(=O)O)cc2)NC(=O)[C@H](Cc2cccc(C)c2)NC(=O)[C@H](CC(=O)O)NC(=O)[C@H](Cc2ccc(OCC(=O)O)cc2)NC1=O` [Compound 2866] ({CH2CO}-[Nva]Y(Carboxymethyl)D[Phe(3-Me)]Y(Carboxymethyl)[Bip]Y(Carboxymethyl)[Orn][dL][Dab][Cha][Val(3-OH)]SC[Dab][AEEA][AEEA]-{NH(CH2)14COOH}; thioether N-14), the IC50 came out at 101 nM. With `CCC[C@@H]1NC(=O)CSC[C@@H](C(=O)N[C@@H](CCN)C(=O)NCCOCCOCC(=O)NCCCCCCCCCCCCC(=O)O)NC(=O)[C@H](CO)NC(=O)[C@H](C(C)(C)O)NC(=O)[C@H](CC2CCCCC2)NC(=O)[C@H](CCN)NC(=O)[C@@H](CC(C)C)NC(=O)[C@H](CCCN)NC(=O)[C@H](Cc2ccc(OCC(=O)O)cc2)NC(=O)[C@H](Cc2ccc(-c3ccccc3)cc2)NC(=O)[C@H](Cc2ccc(OCC(=O)O)cc2)NC(=O)[C@H](Cc2cccc(C)c2)NC(=O)[C@H](CC(=O)O)NC(=O)[C@H](Cc2ccc(OCC(=O)O)cc2)NC1=O` [Compound 2867] ({CH2CO}-[Nva]Y(Carboxymethyl)D[Phe(3-Me)]Y(Carboxymethyl)[Bip]Y(Carboxymethyl)[Orn][dL][Dab][Cha][Val(3-OH)]SC[Dab][AEEA]-{NH(CH2)12COOH}; thioether N-14) the figure was 11.1 nM; with `CCC[C@@H]1NC(=O)CSC[C@@H](C(=O)N[C@@H](CCN)C(=O)NCCOCCOCC(=O)NCCCCCCCCCCCCCCC(=O)O)NC(=O)[C@H](CO)NC(=O)[C@H](C(C)(C)O)NC(=O)[C@H](CC2CCCCC2)NC(=O)[C@H](CCN)NC(=O)[C@@H](CC(C)C)NC(=O)[C@H](CCCN)NC(=O)[C@H](Cc2ccc(OCC(=O)O)cc2)NC(=O)[C@H](Cc2ccc(-c3ccccc3)cc2)NC(=O)[C@H](Cc2ccc(OCC(=O)O)cc2)NC(=O)[C@H](Cc2cccc(C)c2)NC(=O)[C@H](CC(=O)O)NC(=O)[C@H](Cc2ccc(OCC(=O)O)cc2)NC1=O` [Compound 2868] ({CH2CO}-[Nva]Y(Carboxymethyl)D[Phe(3-Me)]Y(Carboxymethyl)[Bip]Y(Carboxymethyl)[Orn][dL][Dab][Cha][Val(3-OH)]SC[Dab][AEEA]-{NH(CH2)14COOH}; thioether N-14), 467 nM; with `Cc1cccc(C[C@@H]2NC(=O)[C@H](CC(=O)O)NC(=O)[C@H](Cc3ccc(OCC(=O)O)cc3)NC(=O)[C@H](CCN)NC(=O)CSC[C@@H](C(=O)N[C@@H](CCN)C(=O)NCCOCCOCC(=O)NCCCCCCCCCCCCC(=O)O)NC(=O)[C@H](Cc3c[nH]cn3)NC(=O)[C@H](C(C)(C)O)NC(=O)[C@H](CC3CCCCC3)NC(=O)[C@H](CCN)NC(=O)[C@@H](CC(C)C)NC(=O)[C@H](CCCN)NC(=O)[C@H](Cc3ccc(OCC(=O)O)cc3)NC(=O)[C@H](Cc3ccc(-c4ccccc4)cc3)NC(=O)[C@H](Cc3ccc(OCC(=O)O)cc3)NC2=O)c1` [Compound 2871] ({CH2CO}-[Dab]Y(Carboxymethyl)D[Phe(3-Me)]Y(Carboxymethyl)[Bip]Y(Carboxymethyl)[Orn][dL][Dab][Cha][Val(3-OH)]HC[Dab][AEEA]-{NH(CH2)12COOH}; thioether N-14), 16.9 nM.

`Cc1cccc(C[C@@H]2NC(=O)[C@H](CC(=O)O)NC(=O)[C@H](Cc3ccc(OCC(=O)O)cc3)NC(=O)[C@H](CCN)NC(=O)CSC[C@@H](C(=O)N[C@@H](CCN)C(=O)NCCOCCOCC(=O)NCCCCCCCCCCCCCCC(=O)O)NC(=O)[C@H](Cc3c[nH]cn3)NC(=O)[C@H](C(C)(C)O)NC(=O)[C@H](CC3CCCCC3)NC(=O)[C@H](CCN)NC(=O)[C@@H](CC(C)C)NC(=O)[C@H](CCCN)NC(=O)[C@H](Cc3ccc(OCC(=O)O)cc3)NC(=O)[C@H](Cc3ccc(-c4ccccc4)cc3)NC(=O)[C@H](Cc3ccc(OCC(=O)O)cc3)NC2=O)c1` [Compound 2872] ({CH2CO}-[Dab]Y(Carboxymethyl)D[Phe(3-Me)]Y(Carboxymethyl)[Bip]Y(Carboxymethyl)[Orn][dL][Dab][Cha][Val(3-OH)]HC[Dab][AEEA]-{NH(CH2)14COOH}; thioether N-14): the IC50 was determined as 83.8 nM. The same measure for `Cc1cccc(C[C@@H]2NC(=O)[C@H](CC(=O)O)NC(=O)[C@H](Cc3ccc(OCC(=O)O)cc3)NC(=O)[C@H](CCN)NC(=O)CSC[C@@H](C(=O)N[C@@H](CCN)C(=O)NCCOCCOCC(=O)NCCOCCOCC(=O)NCCCCCCCCCCCCC(=O)O)NC(=O)[C@H](CO)NC(=O)[C@H](C(C)(C)O)NC(=O)[C@H](CC3CCCCC3)NC(=O)[C@H](Cc3c[nH]cn3)NC(=O)[C@@H](CC(C)C)NC(=O)[C@H](CCCN)NC(=O)[C@H](Cc3ccc(OCC(=O)O)cc3)NC(=O)[C@H](Cc3ccc(-c4ccccc4)cc3)NC(=O)[C@H](Cc3ccc(OCC(=O)O)cc3)NC2=O)c1` [Compound 2873] ({CH2CO}-[Dab]Y(Carboxymethyl)D[Phe(3-Me)]Y(Carboxymethyl)[Bip]Y(Carboxymethyl)[Orn][dL]H[Cha][Val(3-OH)]SC[Dab][AEEA][AEEA]-{NH(CH2)12COOH}; thioether N-14): 34.5 nM; for `Cc1cccc(C[C@@H]2NC(=O)[C@H](CC(=O)O)NC(=O)[C@H](Cc3ccc(OCC(=O)O)cc3)NC(=O)[C@H](CCN)NC(=O)CSC[C@@H](C(=O)N[C@@H](CCN)C(=O)NCCOCCOCC(=O)NCCCCCCCCCCCCC(=O)O)NC(=O)[C@H](CO)NC(=O)[C@H](C(C)(C)O)NC(=O)[C@H](CC3CCCCC3)NC(=O)[C@H](Cc3c[nH]cn3)NC(=O)[C@@H](CC(C)C)NC(=O)[C@H](CCCN)NC(=O)[C@H](Cc3ccc(OCC(=O)O)cc3)NC(=O)[C@H](Cc3ccc(-c4ccccc4)cc3)NC(=O)[C@H](Cc3ccc(OCC(=O)O)cc3)NC2=O)c1` [Compound 2875] ({CH2CO}-[Dab]Y(Carboxymethyl)D[Phe(3-Me)]Y(Carboxymethyl)[Bip]Y(Carboxymethyl)[Orn][dL]H[Cha][Val(3-OH)]SC[Dab][AEEA]-{NH(CH2)12COOH}; thioether N-14): 8.3 nM. `Cc1cccc(C[C@@H]2NC(=O)[C@H](CC(=O)O)NC(=O)[C@H](Cc3ccc(OCC(=O)O)cc3)NC(=O)[C@H](CCN)NC(=O)CSC[C@@H](C(=O)N[C@@H](CCN)C(=O)NCCOCCOCC(=O)NCCCCCCCCCCCCCCC(=O)O)NC(=O)[C@H](CO)NC(=O)[C@H](C(C)(C)O)NC(=O)[C@H](CC3CCCCC3)NC(=O)[C@H](Cc3c[nH]cn3)NC(=O)[C@@H](CC(C)C)NC(=O)[C@H](CCCN)NC(=O)[C@H](Cc3ccc(OCC(=O)O)cc3)NC(=O)[C@H](Cc3ccc(-c4ccccc4)cc3)NC(=O)[C@H](Cc3ccc(OCC(=O)O)cc3)NC2=O)c1` [Compound 2876] ({CH2CO}-[Dab]Y(Carboxymethyl)D[Phe(3-Me)]Y(Carboxymethyl)[Bip]Y(Carboxymethyl)[Orn][dL]H[Cha][Val(3-OH)]SC[Dab][AEEA]-{NH(CH2)14COOH}; thioether N-14): the IC50 turned out to be 212 nM. The same measure for `CCC[C@@H]1NC(=O)CSC[C@@H](C(=O)N[C@@H](CCN)C(=O)NCCOCCOCC(=O)NCCCCCCCCCCC(=O)O)NC(=O)[C@H](CO)NC(=O)[C@H](C(C)(C)O)NC(=O)[C@H](CC2CCCCC2)NC(=O)[C@H](CCN)NC(=O)[C@@H](CC(C)C)NC(=O)[C@H](CCCN)NC(=O)[C@H](Cc2ccc(C(=O)O)cc2)NC(=O)[C@H](Cc2ccc(-c3ccccc3)cc2)NC(=O)[C@H](Cc2ccc(C(=O)O)cc2)NC(=O)[C@H](Cc2cccc(C)c2)NC(=O)[C@H](CC(=O)O)NC(=O)[C@H](Cc2ccc(OCC(=O)O)cc2)NC1=O` [Compound 2877] ({CH2CO}-[Nva]Y(Carboxymethyl)D[Phe(3-Me)][Phe(4-COOH)][Bip][Phe(4-COOH)][Orn][dL][Dab][Cha][Val(3-OH)]SC[Dab][AEEA][Aun]-OH; thioether N-14): 1.5 nM. `CC[C@@H]1NC(=O)CSC[C@@H](C(=O)N[C@@H](CCN)C(=O)NCCOCCOCC(=O)NCCCCCCCCCCC(=O)O)NC(=O)[C@H](CO)NC(=O)[C@H](C(C)(C)O)NC(=O)[C@H](CC2CCCCC2)NC(=O)[C@H](CCN)NC(=O)[C@@H](CC(C)C)NC(=O)[C@H](CCCN)NC(=O)[C@H](Cc2ccc(OCC(=O)O)cc2)NC(=O)[C@H](Cc2ccc(-c3ccccc3)cc2)NC(=O)[C@H](Cc2ccc(OCC(=O)O)cc2)NC(=O)[C@H](Cc2cccc(C)c2)NC(=O)[C@H](CC(=O)O)NC(=O)[C@H](Cc2ccc(OCC(=O)O)cc2)NC1=O` [Compound 2879] ({CH2CO}-[Abu]Y(Carboxymethyl)D[Phe(3-Me)]Y(Carboxymethyl)[Bip]Y(Carboxymethyl)[Orn][dL][Dab][Cha][Val(3-OH)]SC[Dab][AEEA][Aun]-OH; thioether N-14): the IC50 was 2.7 nM. With `CC[C@@H]1NC(=O)CSC[C@@H](C(=O)N[C@@H](CCN)C(=O)NCCOCCOCC(=O)NCCOCCOCC(=O)NCCCCCCCCCCC(=O)O)NC(=O)[C@H](CO)NC(=O)[C@H](C(C)(C)O)NC(=O)[C@H](CC2CCCCC2)NC(=O)[C@H](CCN)NC(=O)[C@@H](CC(C)C)NC(=O)[C@H](CCCN)NC(=O)[C@H](Cc2ccc(C(=O)O)cc2)NC(=O)[C@H](Cc2ccc(-c3ccccc3)cc2)NC(=O)[C@H](Cc2ccc(C(=O)O)cc2)NC(=O)[C@H](Cc2cccc(C)c2)NC(=O)[C@H](CC(=O)O)NC(=O)[C@H](Cc2ccc(OCC(=O)O)cc2)NC1=O` [Compound 2882] ({CH2CO}-[Abu]Y(Carboxymethyl)D[Phe(3-Me)][Phe(4-COOH)][Bip][Phe(4-COOH)][Orn][dL][Dab][Cha][Val(3-OH)]SC[Dab][AEEA][AEEA][Aun]-OH; thioether N-14) the figure was 1.6 nM.
